Assay [1] deals with c-Myc. Briefly: E-Box luciferase reporter, c-Myc transcriptional activity in A431 cells. In kind it is cell-based. The note with it: for EC50: A431 cells expressing luciferase upon E-Box promoter. The source says: (§1) All cell lines come from ATCC. Lentiviruses were generated according to the manufacturer's instructions (Invitrogen). WT A431 cells were transduced with Cignal Lenti Myc Reporter (Qiagen) expressing Luciferase upon E-Box promoter and CMV-Renilla Control CLS-RCL expressing Renilla upon CMV promoter. Single clone was selected after colony isolation and Luciferase/Renilla expression level tested. All cell lines (A431 and HepG2) were maintained in high-glucose Dulbecco's modified Eagle's medium supplemented with 10% foetal calf serum at 37° C. in a 10% CO2 incubator. All experiments were performed on cells passaged fewer than 10 times after thawing.
40,000 A431-Ebox-luc-CMV-Ren cells were seeded in a 96-well plate (Falcon) 48 hours. Luminescence is detected using the Promega Dual-Glo luciferase assay system, according to the manufacturer's protocol and read using Tecan Infinite M200 microplate reader using 100 ms integration time. […]
Background: A reporter such as luciferase makes a cellular process visible.

For assay [2], the system named is A431 cells. Briefly: Cell fractionation, subcellular location. In kind it is cell-based. The note with it: for subcellular location after cell fractionation: 200 nM, 1 hour, A431; for time to reach the nucleus: after incubation. The protocol: Cells were seeded at the desired densities in six-well dishes (Thermo Fisher Scientific) and incubated at 37° C., 10% CO2 for 16 hours. Cells were treated for 1 hour with mock (untreated cells) or tPE-H1 200 nM before fractionation with Cell Surface Protein Isolation Kit (#89881, Thermo Fisher Scientific) according to the manufacturer's protocol. In addition, cytosolic fraction is centrifuge at 15 000 g for 15 minutes to remove membrane contaminants. Samples are denaturated in Laemmli blue 2X and heat-denaturated for 5 minutes at 95° C. Samples are loaded on SDS-PAGE followed by western blot.
(§2) It is of note that the experiments outlined above were also performed using the tPE-Omomcy fusion protein, results of which are shown in FIG. 2B, and FIGS. 12 to 15. The concentration of the tPE-Omomyc fusion protein is as stated on the x-axis in FIGS. 12 and 14; 200 nM for FIG. 2B; and 10 nM for FIGS. 13 and 15.

Assay [3] relates to Hepatocarcinoma HepG2 cells. Briefly: HepG2 cell proliferation (IncuCyte live imaging). In kind it is cell-based. The note with it: for concentration above which no proliferation / absence of cell growth: HepG2, 2 weeks. The protocol: (§3) Cells were seeded at 10 to 20% confluency. 24 hours later, the cells were incubated with different doses of tPE-H1 at 37° C., 10% CO2 for 14 days. Live imaging was performed using IncuCyte ZOOM® Live-Cell Analysis System. Bright field Images were taken every 6 hours. Images were analysed using IncuCyte ZOOM® Live-Cell Analysis software.
as §2

Assay [4] relates to Hepatocarcinoma HepG2 cells. In words: DRAQ7 cell mortality assay. In kind it is cell-based. The note with it: 24 hours. The protocol: 25000 HepG2 cells were seeded per well in a 96-well plate. After incubation at 37° C. for 24 hours, DRAQ7 dye was prepared with 100 nM tPE-H1 at 500 times dilution
Cell mortality was tracked by acquiring nine fields of brightfield and far-red images at 20× magnification every 4 hours using the Operetta machine (Perkin-Elmer) for 3 to 5 days. The machine kept the plate incubated at 37° C. with 8% CO2.
as §2

Assay [5] deals with HeLa, A431, MG63, MDA-MD231, and HCT116. In words: Sensitivity of other cell lines (data not shown). In kind it is cell-based.
Assay [6] relates to Renilla upon CMV promoter. In words: CMV-Renilla control reporter in A431 cells. In kind it is cell-based. The note with it: 50 nM, 6 hours.
Source text: as §1
40,000 A431-Ebox-luc-CMV-Ren cells were seeded in a 96-well plate (Falcon) 48 hours. Luminescence is detected using the Promega Dual-Glo luciferase assay system, according to the manufacturer's protocol and read using Tecan Infinite M200 microplate reader using 100 ms integration time.

The target in assay [7] is T1, c-Myc/Max complex (Homo sapiens, UniProt P01106).
T1 construct: endogenous in cells; host or cells: A431
In words: c-Myc co-immunoprecipitation with Max. The note with it: 200 nM, 1 hour, A431. In kind it is cell-based. The protocol:
A431 cells seeded at the desired densities in six-well dishes (Thermo Fisher Scientific) and incubated at 37° C., 10% CO2 for 16 hours. Cells were treated for 1 hour with mock, tPE or tPE-H1 200 nM before lysis in RIPA buffer for 20 minutes at 4° C. and centrifugation for 20 minutes at 15 000 g at 4° C. Soluble fractions were added with c-myc antibody (#32, Abcam) on orbital wheel for 4 hours at 4° C. Protein A Sepharose (GE Healthcare) was added and incubated overnight on orbital wheel at 4° C. After three washes, proteins were eluted in one volume of Laemmli blue 2X and heat-denaturated for 5 minutes at 95° C. Samples were run on SDS-PAGE before western blot. Membrane are blocked in milk and incubated with anti Max (#199489, Abcam) and anti c-Myc (#32072, Abcam).

In assay [8] the test system is A431 cells. Briefly: A431 cell proliferation (IncuCyte live imaging). In kind it is cell-based. The protocol:
as §3

Assay [9] relates to c-Myc regulated genes. In words: RT-PCRQ of c-Myc regulated transcripts. In kind it is cell-based, human. The note with it: A431, 100 nM overnight (16 hours). The protocol: 400000 A431 cells were seeded in each well in a 6 well plate (Falcon) 24 hours before incubation with 100 nM tPE-H1 for 16 hours at 37° C. Total RNA was isolated using the RNeasy Mini Kit (Qiagen, Ref. no 74106) as described by manufacturer's protocol.
10 μg total RNA was reversed transcribed using SuperScript III First-Strand Synthesis System for RT-PCR (Invitrogen, Cat. no. 18080051) as described by manufacturer's protocol.
The relative expression of mRNAs of c-Myc regulated genes identified in RT^2 Profiler™ PCR Array Human MYC Targets (Qiagen, Cat. no. PAHS-177Z) was determined by real-time quantitative RT-PCR. Briefly, a PCR component mix containing cDNA, RT^2 SYBR Green Mastermix (Qiagen, Cat. no. 330523) and RNase-free water is prepared. 25 μl of the PCR reaction was added to each well in one array plate and subjected to a qPCR program using the ABI 7500. PCR cycling conditions comprised of an initial denaturation step at 95° C. for 10 minutes followed by an amplification program for 40 cycles of 15 seconds at 95° C., and 60 seconds at 60° C. with fluorescence acquisition at the end of each extension. The relative expression of each gene between treated and untreated samples is calculated using the comparative ΔΔCT method, using the mock treated sample as calibrator and housekeeping gene HPRT as internal control.

The mark [10] stands for this setting: 6 hours, read-out: EC50 on c-Myc transcriptional activity (c-Myc-dependent luciferase activity).
The mark [11] stands for this setting: tPE-Omomyc 10 nM, A431 E-Box luciferase.
Setting [12] is: 6 hours, read-out: EC50 on c-Myc transcriptional activity, CPP fused to H1.
[13] abbreviates: tPE-H1 50 nM, A431 E-Box luciferase.

Entries after “also recorded” stand apart in the source; their conditions may differ. Read-outs that look alike come from different tables or passages of the source. Bounds are passed on as bounds.

The source of these data is patent publication US20200354411A1, “Chimeric Molecule for Targeting c-Myc in Cells” (priority 2017, published 2020).

T1 sequence (P01106 whole entry, one chain of several): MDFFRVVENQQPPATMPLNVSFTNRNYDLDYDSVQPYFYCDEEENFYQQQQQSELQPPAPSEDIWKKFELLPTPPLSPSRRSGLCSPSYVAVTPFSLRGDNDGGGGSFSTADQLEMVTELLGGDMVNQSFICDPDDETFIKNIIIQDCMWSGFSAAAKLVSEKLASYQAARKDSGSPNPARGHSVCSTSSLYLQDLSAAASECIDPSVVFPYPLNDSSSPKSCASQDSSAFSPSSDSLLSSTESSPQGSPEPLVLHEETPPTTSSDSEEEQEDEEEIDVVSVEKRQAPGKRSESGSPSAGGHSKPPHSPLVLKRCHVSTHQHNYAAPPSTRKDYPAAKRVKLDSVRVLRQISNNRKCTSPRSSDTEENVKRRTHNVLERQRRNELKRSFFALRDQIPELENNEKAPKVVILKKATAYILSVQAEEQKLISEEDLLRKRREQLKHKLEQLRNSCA

Consider “tPE-Omomyc: fusion protein: PE domains Ia and II genetically fused to Omomyc peptide, SEQ ID NO: 15”, for which, in [1] (setting [10]), the 50% effective concentration (EC50) – broadly, the midpoint of the concentration-response curve – is 0.005 µM. Besides, in [1] (setting [11]), the “time of peak activity / maximal inhibition of luciferase” value is 16 h and the “time over which maximal inhibition is stable” value is “more than 24 hours”. In assay [2], the “subcellular location after cell fractionation” value is recorded as “located in nuclear fraction; also recorded: in the nuclear fraction” and the “time to reach the nucleus” value is no more than 1 h. In assay [3], the “concentration sufficient to block HepG2 cell proliferation and induce cell death/apoptosis” value worked out at 10 nM; the “concentration above which no proliferation / absence of cell growth” value is reported as “above 10 nM”. Also, the cell proliferation entry in assay [3] (HepG2, 2.5 nM and 5 nM, 2 weeks) is on record as “slower cell proliferation”. Moreover, in assay [3] (HepG2, 1 to 10 nM), the “cell proliferation, different doses” value was “decrease in cell proliferation”. For the same substance, the “number of dead (DRAQ7 positive) cells” value in [4] (HepG2, 10 nM) is reported as “significant increase; also recorded: increase of the number of dead cells”. In addition, the “concentration to which cell lines were sensitive” value in assay [5] (HeLa, A431, MG63, MDA-MD231, HCT116, data not shown) is “about 10 nM”.

On to “cell targeting peptide Cadherin fused to H1: LLIILLRRRIRKQAHAHSK NELKRAFAALRDQI [CAD-H1, reference compound]”, for which the EC50 was 75 µM in assay [1] (6 hours, listed as Cadherin, read-out: EC50 on c-Myc transcriptional activity, CPP fused to H1) and roughly 75 µM in assay [1] (setting [12]).

“tPE-H1: fusion protein: PE domains Ia and II genetically fused to mutated H1 peptide (S6A, F8A), SEQ ID NO: 14”: the “more efficient than H1 fused to cell penetrating peptides (TAT, CAD, int)” value in [1] is “at least 1000 times”. In addition, the “decrease in Myc reporter activity” value in [1] (50 nM) was greater than 90%. The “effect on E-Box luciferase” value in assay [1] (50 nM, 6 hours, A431) was “decrease of the luciferase”. Besides, in assay [1] (setting [10]), the EC50 was 0.025 µM. Besides, in assay [1] (setting [13]), the “time of peak activity / maximal inhibition of luciferase” value came out at 8 h and the “time over which maximal inhibition was stable” value was “more than 24 hours”. In addition, the “effect on Renilla luciferase (CMV promoter control)” value in [6] was “not affected”. Further, in [2], the “subcellular location after cell fractionation” value is listed as “location in the nucleus” and the “time to reach the nucleus” value is reported as “less than 1 hour”. Besides, the “effect on c-Myc/Max interaction (co-IP of Max with c-Myc)” value in assay [7] is given as “disrupted the c-Myc/Max interaction”. Besides, the cell proliferation result in [8] (A431, 50 nM and 100 nM, over 2 weeks) is on record as “slower cell proliferation”. Besides, the “cell proliferation, dose response” value in [8] (A431, 50 to 400 nM) was “dose dependent decrease in cell proliferation”. In addition, the “concentration above which no proliferation / total absence of growth” value in assay [8] (A431, over 2 weeks) is “above 200 nM”. In addition, in assay [3], the “concentration sufficient to block HepG2 cell proliferation and induce cell death/apoptosis” value came to 100 nM; the “concentration above which no proliferation / absence of cell growth” value was “above 50 nM”. Besides, the cell proliferation result in assay [3] (HepG2, 10 nM and 25 nM, over 2 weeks) is on record as “slower cell proliferation”. For the same substance, the “number of dead (DRAQ7 positive) cells” value in assay [4] (HepG2, 100 nM) is listed as “cells death; also recorded: increase of the number of dead cells”. The “mRNA amount of transcripts regulated by c-Myc” value in assay [9] was “decrease of numerous upregulated genes under tPE-H1 treatment and an increase of numerous down regulated genes”. Besides, in assay [5] (all the cell lines tested), the “relative sensitivity of all cell lines tested, tPE-H1 versus tPE-Omomyc” value is listed as “around 10 times”.

As to “cell targeting peptide Antenapedia fused to H1: RQIKIWFQNRRMKWKK NELKRAFAALRDQI [Int-H1, reference compound]”, the EC50 was 200 µM in assay [1] (6 hours, listed as Antenapedia, read-out: EC50 on c-Myc transcriptional activity, CPP fused to H1) and roughly 200 µM in [1] (6 hours, listed as int-H1, read-out: EC50 on c-Myc transcriptional activity, CPP fused to H1).

For the substance “cell targeting peptide TAT fused to H1: GRKKRRQRRRPPQ NELKRAFAALRDQI [Tat-H1, reference compound]”, the EC50 was 500 µM in assay [1] (6 hours, listed as TAT, read-out: EC50 on c-Myc transcriptional activity, CPP fused to H1) and roughly 500 µM in [1] (setting [12]).
